Laboratory results taken from article PMC11187126, “Structure and dynamics of the pyroglutamylated RF-amide peptide QRFP receptor GPR103” (Nature Communications, 2024).
No end group written: not given here.

Target: T1, GPR103 C98^2.57A (Homo sapiens, UniProt Q96P65, C98A)
T1 construct: we used human full-length QRFPR-encoding plasmids; expressed in transfected cells; host or cells: HEK293 cells, pCAGGS vector
T1 sequence (Q96P65 1-431 C98A): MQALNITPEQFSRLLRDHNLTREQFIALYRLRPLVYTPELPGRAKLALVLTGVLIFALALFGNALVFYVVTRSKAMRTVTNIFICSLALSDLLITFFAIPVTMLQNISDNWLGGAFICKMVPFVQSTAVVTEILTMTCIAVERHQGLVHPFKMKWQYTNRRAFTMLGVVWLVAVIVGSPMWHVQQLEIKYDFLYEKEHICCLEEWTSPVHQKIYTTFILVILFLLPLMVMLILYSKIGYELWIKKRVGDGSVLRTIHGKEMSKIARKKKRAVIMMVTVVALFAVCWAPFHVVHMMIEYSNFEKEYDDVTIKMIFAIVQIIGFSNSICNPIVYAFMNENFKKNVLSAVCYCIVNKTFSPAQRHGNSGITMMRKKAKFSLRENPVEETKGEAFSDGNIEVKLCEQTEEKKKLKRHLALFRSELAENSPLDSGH
Experiment: TGFα shedding assay; Exp. level WT (1:50)
Assay type: cell-based
Experimental: For the TGFα shedding assay and the flow cytometry analysis, we used human full-length QRFPR-encoding plasmids. Specifically, GPR103 was N-terminally modified with an HA signal sequence followed by a FLAG epitope and then a flexible linker ([…]; the FLAG epitope is underlined) and inserted into the pCAGGS vector. Plasmid encoding GPR103 mutants were generated using Quickchange Site-Directed Mutagensis kit (Agilent).
The TGFα shedding assay was performed as described previously with minor modifications. Plasmid transfection was performed in a 6-well plate with a mixture of 500 ng (per well in a 6-well plate) AP-TGFα-encoding plasmid and 200 ng GPR103-encoding plasmid. After 1-day culture, the transfected cells were harvested by trypsinization, pelleted by centrifugation at 190 × g for 5 min, and washed once with 5 mM HEPES (pH 7.4)-containing Hank’s Balanced Salt Solution (HBSS). After centrifugation, the cells were resuspended in 8 mL of the HEPES-containing HBSS. The cell suspension was seeded in a 96-well culture plate (cell plate) at a volume of 90 μL (per well hereafter) and incubated in a 37 °C incubator with 5% CO2 for 30 min. […] After spinning the cell plates at 190 × g for 2 min, 80 μL of conditioned media was transferred to an empty 96-well plate (conditioned media (CM) plate). Then, 80 μL of AP reaction solution (10 mM p-nitrophenylphosphate (p-NPP), 120 mM Tris-HCl (pH 9.5), 40 mM NaCl, and 10 mM MgCl2) was dispensed into the cell plates and the CM plates. Absorbance at 405 nm of the plates was measured using a microplate reader (SpectraMax 340 PC384, Molecular Devices) before and after 1-h incubation at room temperature. Ligand-induced AP-TGFα release was calculated by subtracting spontaneous AP-TGFα release signal from ligand-induced AP-TGFα release signal. The AP-TGFα release signals were fitted to a four-parameter sigmoidal concentration–response curve, using the Prism 10 software (GraphPad Prism). For each replicate experiment, the pEC50 parameter (negative logarithmic values of EC50 values) of the individual GPR103 mutants were normalized to that of the wild-type GPR103 performed in parallel, and resulting ∆pEC50 values were used to denote ligand response activity of the mutants. […]
Exp. le vel: WT (1:5 0)Exp. le vel: WT (1:5 0)Exp. le vel: WT (1:5 0)Exp. le vel: WT (1:2 0)Exp. le vel: WT (1:2 0)Exp. le vel: WT (1:1 0) […]
L1 4N - t e r mA F2 5N - t e r mA I 2 6N - t e r mA Y 2 9N - t e r mA C 9 82 .5 7A T10 22 .6 1A Exp . l eve l: WT (1 :5)Exp . l evel : >WT (1 :1)Exp. le vel: WT (1:2 0)Exp. le vel: WT (1:2 0)Exp. le vel: WT (1:5 0)Exp . l eve l: WT (1 :1) […]
Exp. le vel: WT (1:1 0)Exp. le vel: WT (1:2 0) C 1 1 83 .2 5AExp. le vel: WT (1:5 0)Exp. le vel: WT (1:5 0)Exp. le vel: WT (1:2 0)Exp . l eve l: WT (1 :5) […]
Exp. le vel: WT (1:5 0)Exp. le vel: WT (1:1 0)Exp. le vel: WT (1:5 0) E203ECL2AExp . l evel : >WT (1 :1)Exp. le vel: WT (1:5 0)Exp. le vel: WT (1:5 0) […]
Exp . l eve l: WT (1 :1) F28Exp. le vel: WT (1:5 0) C 2 8 56 .4 7AExp. le vel: WT (1:2 0) WExp. le vel: WT (1:2 0) F28Exp. le vel: WT (1:5 0)Exp . l evel : >WT (1 :1) […]
Exp. le vel: WT (1:5 0)Exp. le vel: WT (1:5 0) C 3 2 77 .4 8AExp . l eve l: WT (1 :5)Exp . l evel : >WT (1 :1)Exp . l evel : >WT (1 :1) […]
Suppl eme nt ary Figure 1 | Mutational analysis of GPR103. […]
mutants. Data are presented as mean values ± SEM, normally n=3-5; dots), each performed in triplicate. b-d Cell-surface expression (b) and QRFP26-in-duced activation of GPR103 (c, d) were analyzed by the flow cytometry and the TGFα shedding assay, respectively. From the concentration–response curves (a), Emax (c) and ΔpEC50 (d) values relative to the wild type were calculated. Colors in the mutant bars indicate an expression level matching to that of titrated wild type. Statistical analyses were performed using the ordinary one-way ANOVA followed by Dunnett tests with the expression-matched […]

TSGPLGNLAEELNGYSRKKGGFSFRF-NH2 [QRFP26]
Emax (mean): 86% | EC50 (n = 3): 72.4 nM | Emax (n = 3): 88.3 ± 3.6%
